{"source": "ChEMBL document CHEMBL1126091", "about": "“Ring substituted and other conformationally constrained tyrosine analogues of [D-Pen2,D-Pen5]enkephalin with delta opioid receptor selectivity” (J Med Chem, 1992)", "key": {"[1]": {"biological_target": "T1, Delta-type opioid receptor (Rattus norvegicus, UniProt P33533)", "T1 sequence (P33533 whole entry)": "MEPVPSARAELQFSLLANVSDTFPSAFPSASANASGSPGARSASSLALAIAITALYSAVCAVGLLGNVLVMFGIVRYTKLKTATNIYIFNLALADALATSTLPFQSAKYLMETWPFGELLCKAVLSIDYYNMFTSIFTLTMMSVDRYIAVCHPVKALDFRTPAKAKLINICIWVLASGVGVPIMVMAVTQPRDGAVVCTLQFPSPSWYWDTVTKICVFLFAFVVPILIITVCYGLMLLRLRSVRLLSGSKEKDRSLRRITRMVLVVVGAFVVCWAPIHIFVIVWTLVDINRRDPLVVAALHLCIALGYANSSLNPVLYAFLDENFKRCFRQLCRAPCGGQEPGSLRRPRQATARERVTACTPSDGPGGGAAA", "assay": "Compound was evaluated for the binding affinity in comparison with [3H]- DPDPE (opioid receptor delta selective ligand)"}, "Mu-type opioid receptor [2]": {"biological_target": "T2, Mu-type opioid receptor (Rattus norvegicus, UniProt P33535)", "T2 sequence (P33535 whole entry)": "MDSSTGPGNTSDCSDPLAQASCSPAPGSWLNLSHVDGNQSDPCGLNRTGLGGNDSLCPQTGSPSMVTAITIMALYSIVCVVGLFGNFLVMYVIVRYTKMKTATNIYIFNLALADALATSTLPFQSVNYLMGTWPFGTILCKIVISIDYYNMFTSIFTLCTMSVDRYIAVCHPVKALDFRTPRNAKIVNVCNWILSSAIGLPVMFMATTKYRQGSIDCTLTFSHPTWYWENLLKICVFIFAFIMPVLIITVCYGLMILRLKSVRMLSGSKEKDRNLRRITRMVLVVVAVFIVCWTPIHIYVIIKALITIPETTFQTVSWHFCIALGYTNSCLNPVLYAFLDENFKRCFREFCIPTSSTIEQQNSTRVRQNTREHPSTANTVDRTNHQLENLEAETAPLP", "assay": "Compound was evaluated for its ability to displace [3H]- CTOP (opioid receptor mu selective ligand)"}, "[3]": {"biological_target": "T3, Delta-type opioid receptor (Mus musculus, UniProt P32300)", "T3 sequence (P32300 whole entry)": "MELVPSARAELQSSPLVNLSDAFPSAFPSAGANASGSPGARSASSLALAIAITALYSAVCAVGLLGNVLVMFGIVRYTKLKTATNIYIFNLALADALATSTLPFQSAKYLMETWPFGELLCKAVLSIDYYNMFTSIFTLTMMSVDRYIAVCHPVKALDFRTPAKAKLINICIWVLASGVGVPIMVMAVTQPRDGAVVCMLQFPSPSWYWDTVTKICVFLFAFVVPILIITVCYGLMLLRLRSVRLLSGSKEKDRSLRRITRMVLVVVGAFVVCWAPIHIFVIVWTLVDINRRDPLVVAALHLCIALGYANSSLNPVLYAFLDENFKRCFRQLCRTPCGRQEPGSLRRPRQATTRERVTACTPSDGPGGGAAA", "assay": "Compound was evaluated for its inhibitory potency against opioid receptor delta of Mouse vas deferens", "format": "tissue-based"}, "[4]": {"assay": "Macroscopic pKa value of the compound", "format": "physicochemical"}, "[5]": {"biological_target": "T3, Delta-type opioid receptor", "assay": "Compound was evaluated for its inhibitory potency against Opioid receptor delta 1 of Mouse vas deferens", "format": "tissue-based"}, "[6]": {"biological_target": "T1, Delta-type opioid receptor", "assay": "Compound was evaluated for the binding affinity in comparison with [3H][p-Cl-Phe4]-DPDPE (delta opioid receptor selective ligand)"}, "Mu-type opioid receptor [7]": {"biological_target": "T2, Mu-type opioid receptor", "assay": "Compound was evaluated for its ability to displace [3H]- CTOP (mu opioid receptor selective ligand)"}, "[8]": {"biological_target": "T1, Delta-type opioid receptor", "assay": "Compound was evaluated for the binding affinity in comparison with [3H][p-Cl-Phe4]-DPDPE (opioid receptor delta selective ligand)"}, "[9]": {"biological_target": "Delta-type opioid receptor (Homo sapiens) (UniProt P41143)", "sequence (P41143 whole entry)": "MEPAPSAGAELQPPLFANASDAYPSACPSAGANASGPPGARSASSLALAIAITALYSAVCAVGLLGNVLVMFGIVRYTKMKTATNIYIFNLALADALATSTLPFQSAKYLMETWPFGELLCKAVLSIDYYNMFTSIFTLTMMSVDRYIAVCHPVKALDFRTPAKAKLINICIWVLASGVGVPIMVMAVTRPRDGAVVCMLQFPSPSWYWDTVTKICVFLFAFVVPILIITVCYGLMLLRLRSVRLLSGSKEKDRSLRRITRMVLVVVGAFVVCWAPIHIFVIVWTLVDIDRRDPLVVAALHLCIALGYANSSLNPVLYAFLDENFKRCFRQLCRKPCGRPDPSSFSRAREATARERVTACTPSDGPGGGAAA", "assay": "Compound was evaluated for the percentage of maximum inhibition at opioid receptor delta"}, "[10]": {"biological_target": "T3, Delta-type opioid receptor", "assay": "Compound was evaluated for […] at Opioid receptor delta 1"}}, "data": [{"molecule": "Cc1cc(O)ccc1C[C@H](N)C(=O)N[C@H]1C(=O)NCC(=O)N[C@@H](Cc2ccccc2)C(=O)N[C@@H](C(=O)O)C(C)(C)SSC1(C)C", "values": [{"measurement": "IC50", "setting": "[1]", "value": 0.89, "unit": "nM"}, {"measurement": "IC50", "setting": "Mu-type opioid receptor [2]", "value": 1170, "unit": "nM"}, {"measurement": "IC50", "setting": "[3]", "value": 4.52, "unit": "nM"}]}, {"molecule": "CC1(C)SSC(C)(C)[C@@H](NC(=O)[C@@H](N)Cc2ccc(O)c([N+](=O)[O-])c2)C(=O)NCC(=O)N[C@@H](Cc2ccccc2)C(=O)N[C@H]1C(=O)O", "values": [{"measurement": "pKa", "setting": "[4]", "value": 7.2}]}, {"molecule": "C[C@H](c1ccc(O)cc1)[C@@H](N)C(=O)N[C@H]1C(=O)NCC(=O)N[C@@H](Cc2ccccc2)C(=O)N[C@@H](C(=O)O)C(C)(C)SSC1(C)C", "values": [{"measurement": "IC50", "setting": "[5]", "value": 20700, "unit": "nM"}, {"measurement": "IC50", "setting": "[6]", "value": 426, "unit": "nM"}, {"measurement": "IC50", "setting": "Mu-type opioid receptor [7]", "value": 22800, "unit": "nM"}]}, {"molecule": "COc1cc(C[C@H](N)C(=O)N[C@H]2C(=O)NCC(=O)N[C@@H](Cc3ccccc3)C(=O)N[C@@H](C(=O)O)C(C)(C)SSC2(C)C)ccc1O", "values": [{"measurement": "pKa", "setting": "[4]", "value": 9.7}]}, {"molecule": "CC1(C)SSC(C)(C)[C@@H](NC(=O)[C@]2(N)CCC3C=C(O)C=CC3C2)C(=O)NCC(=O)N[C@@H](Cc2ccccc2)C(=O)N[C@H]1C(=O)O", "note": "(stereo in doubt; 8) [listing 1 of 2 here]", "values": [{"measurement": "IC50", "setting": "[8]", "value": 24.5, "unit": "nM"}, {"measurement": "IC50", "setting": "Mu-type opioid receptor [2]", "value": 2820, "unit": "nM"}, {"measurement": "IC50", "setting": "[3]", "value": 137, "unit": "nM"}]}, {"molecule": "CC1(C)SSC(C)(C)[C@@H](NC(=O)[C@]2(N)CCC3C=C(O)C=CC3C2)C(=O)NCC(=O)N[C@@H](Cc2ccccc2)C(=O)N[C@H]1C(=O)O", "note": "(stereo in doubt; 9) [listing 1 of 2 here]", "values": [{"measurement": "Emax", "setting": "[9]", "value": 79, "unit": "%"}]}, {"molecule": "C[C@@H](c1ccc(O)cc1)[C@@H](N)C(=O)N[C@H]1C(=O)NCC(=O)N[C@@H](Cc2ccccc2)C(=O)N[C@@H](C(=O)O)C(C)(C)SSC1(C)C", "values": [{"measurement": "IC50", "setting": "[10]", "value": 698, "unit": "nM"}, {"measurement": "IC50", "setting": "[6]", "value": 20000, "unit": "nM"}, {"measurement": "IC50", "setting": "Mu-type opioid receptor [7]", "value": "> 40000", "unit": "nM"}]}, {"molecule": "CC1(C)SSC(C)(C)[C@@H](NC(=O)[C@]2(N)CCC3C=C(O)C=CC3C2)C(=O)NCC(=O)N[C@@H](Cc2ccccc2)C(=O)N[C@H]1C(=O)O", "note": "(stereo in doubt; 9) [listing 2 of 2 here]", "values": [{"measurement": "IC50", "setting": "[8]", "value": 2.36, "unit": "nM"}, {"measurement": "IC50", "setting": "Mu-type opioid receptor [2]", "value": 1440, "unit": "nM"}, {"measurement": "IC50", "setting": "[3]", "value": 22, "unit": "nM"}]}, {"molecule": "CC1(C)SSC(C)(C)[C@@H](NC(=O)[C@@H](N)Cc2ccc(O)c(N)c2)C(=O)NCC(=O)N[C@@H](Cc2ccccc2)C(=O)N[C@H]1C(=O)O", "values": [{"measurement": "pKa", "setting": "[4]", "value": 10}]}, {"molecule": "C[C@@H](c1ccc(O)cc1)[C@H](N)C(=O)N[C@H]1C(=O)NCC(=O)N[C@@H](Cc2ccccc2)C(=O)N[C@@H](C(=O)O)C(C)(C)SSC1(C)C", "values": [{"measurement": "IC50", "setting": "[10]", "value": 243, "unit": "nM"}, {"measurement": "IC50", "setting": "[6]", "value": 440, "unit": "nM"}, {"measurement": "IC50", "setting": "Mu-type opioid receptor [7]", "value": 18600, "unit": "nM"}]}, {"molecule": "Cc1cc(O)ccc1C[C@@H](N)C(=O)N[C@H]1C(=O)NCC(=O)N[C@@H](Cc2ccccc2)C(=O)N[C@@H](C(=O)O)C(C)(C)SSC1(C)C", "values": [{"measurement": "IC50", "setting": "[10]", "value": 763, "unit": "nM"}, {"measurement": "IC50", "setting": "[6]", "value": 1130, "unit": "nM"}, {"measurement": "IC50", "setting": "Mu-type opioid receptor [7]", "value": 16600, "unit": "nM"}]}, {"molecule": "CC1(C)SSC(C)(C)[C@@H](NC(=O)[C@@H](N)Cc2ccc(O)c(I)c2)C(=O)NCC(=O)N[C@@H](Cc2ccccc2)C(=O)N[C@H]1C(=O)O", "values": [{"measurement": "pKa", "setting": "[4]", "value": 8.2}]}, {"molecule": "CC1(C)SSC(C)(C)[C@@H](NC(=O)[C@]2(N)CCC3C=C(O)C=CC3C2)C(=O)NCC(=O)N[C@@H](Cc2ccccc2)C(=O)N[C@H]1C(=O)O", "note": "(stereo in doubt; 8) [listing 2 of 2 here]", "values": [{"measurement": "Emax", "setting": "[9]", "value": 31, "unit": "%"}]}, {"molecule": "C[C@H](c1ccc(O)cc1)[C@H](N)C(=O)N[C@H]1C(=O)NCC(=O)N[C@@H](Cc2ccccc2)C(=O)N[C@@H](C(=O)O)C(C)(C)SSC1(C)C", "values": [{"measurement": "IC50", "setting": "[10]", "value": 14.6, "unit": "nM"}, {"measurement": "IC50", "setting": "[6]", "value": 84.8, "unit": "nM"}, {"measurement": "IC50", "setting": "Mu-type opioid receptor [7]", "value": "> 20000", "unit": "nM"}]}]}
